Results taken from the NIST ThermoML archive (doi:10.1021/je060271a).
Numbers after ± are expanded uncertainties.

Settings: 323.15 K, Liquid, Vibrating tube method

CCCCCCCC(=O)OCC(COC(=O)CCCCCCC)(COC(=O)CCCCCCC)COC(=O)CCCCCCC [pentaerythritol tetraoctanoate]
Settings	mass density [kg/m3]
1092.7 kPa	941.3 ± 1.1
1117.7 kPa	941.4 ± 1.1
1150.2 kPa	941.4 ± 1.1
1178 kPa	941.4 ± 1.1
1206.8 kPa	941.4 ± 1.1
1237.7 kPa	941.5 ± 1.1
1275.6 kPa	941.4 ± 1.1
1308.8 kPa	941.4 ± 1.1
1344.2 kPa	941.6 ± 1.1
1380.8 kPa	941.4 ± 1.1
1426.8 kPa	941.7 ± 1.1
1467.5 kPa	941.6 ± 1.1
1510.3 kPa	941.7 ± 1.1
1707.2 kPa	941.7 ± 1.1
1720.8 kPa	941.6 ± 1.1
1734.6 kPa	941.9 ± 1.1
1749 kPa	941.8 ± 1.1
1766.8 kPa	941.8 ± 1.1
1780.8 kPa	941.9 ± 1.1
1795.7 kPa	941.8 ± 1.2
1810.5 kPa	941.9 ± 1.1
1828.9 kPa	941.8 ± 1.2
1844.2 kPa	941.8 ± 1.1
1859.6 kPa	942 ± 1.1
1875.8 kPa	941.8 ± 1.2
1895.2 kPa	942 ± 1.1
1915.1 kPa	941.9 ± 1.1
1932.3 kPa	942 ± 1.1
1947.8 kPa	942 ± 1.1
1957.8 kPa	942 ± 1.1
1963.7 kPa	942 ± 1.1
1968.9 kPa	942 ± 1.1
1974 kPa	942 ± 1.1
1987.2 kPa	942.1 ± 1.1
2016.7 kPa	941.9 ± 1.1
2142.1 kPa	942 ± 1.1
2259.4 kPa	942.1 ± 1.2
2339.7 kPa	942.1 ± 1.2
2352.9 kPa	942.3 ± 1.2
2366.5 kPa	942.3 ± 1.1
2382.6 kPa	942.2 ± 1.2
2409.7 kPa	942.5 ± 1.1
2426.8 kPa	942.3 ± 1.2
2441.1 kPa	942.3 ± 1.2
2454.6 kPa	942.4 ± 1.1
2468.6 kPa	942.2 ± 1.1
2486 kPa	942.4 ± 1.2
2500.4 kPa	942.4 ± 1.2
2515.6 kPa	942.2 ± 1.1
2533.2 kPa	942.4 ± 1.1
2546 kPa	942.5 ± 1.1
2554.1 kPa	942.4 ± 1.2
2597 kPa	942.4 ± 1.1
2605 kPa	942.4 ± 1.1
2612.9 kPa	942.4 ± 1.1
2622.5 kPa	942.4 ± 1.2
2630.8 kPa	942.4 ± 1.2
2639.1 kPa	942.4 ± 1.1
2648.3 kPa	942.4 ± 1.1
2656.5 kPa	942.4 ± 1.1
2664.8 kPa	942.5 ± 1.1
2674.9 kPa	942.5 ± 1.1
2683.4 kPa	942.5 ± 1.2
2692.2 kPa	942.4 ± 1.2
2701.1 kPa	942.4 ± 1.1
2709.7 kPa	942.4 ± 1.1
2720 kPa	942.5 ± 1.2
2728.5 kPa	942.4 ± 1.2
2737.3 kPa	942.5 ± 1.1
2746.3 kPa	942.5 ± 1.2
2756.7 kPa	942.6 ± 1.2
2765.4 kPa	942.6 ± 1.2
2775.6 kPa	942.5 ± 1.2
2784.8 kPa	942.5 ± 1.2
2793.7 kPa	942.6 ± 1.2
2803.2 kPa	942.6 ± 1.2
2814.5 kPa	942.5 ± 1.2
2821.9 kPa	942.6 ± 1.2
2832.7 kPa	942.6 ± 1.2
2841.7 kPa	942.5 ± 1.2
2852.6 kPa	942.6 ± 1.2
2862.2 kPa	942.5 ± 1.2
2871.5 kPa	942.6 ± 1.2
2880.9 kPa	942.6 ± 1.2
2892.2 kPa	942.6 ± 1.2
2901.4 kPa	942.6 ± 1.2
2911.2 kPa	942.6 ± 1.2
2922.7 kPa	942.6 ± 1.2
2932.2 kPa	942.6 ± 1.2
2944 kPa	942.6 ± 1.2
2953.7 kPa	942.6 ± 1.2
2963.9 kPa	942.6 ± 1.2
2974 kPa	942.7 ± 1.2
2983.7 kPa	942.7 ± 1.2
2995.7 kPa	942.7 ± 1.2
3005.6 kPa	942.6 ± 1.2
3016 kPa	942.6 ± 1.2
3027.9 kPa	942.7 ± 1.2
3038.3 kPa	942.7 ± 1.2
3048.7 kPa	942.7 ± 1.2
3059.1 kPa	942.7 ± 1.2
3071.6 kPa	942.8 ± 1.2
3082 kPa	942.7 ± 1.2
3092.6 kPa	942.7 ± 1.2
3105.1 kPa	942.7 ± 1.2
3115.6 kPa	942.8 ± 1.2
3128.6 kPa	942.7 ± 1.2
3139.4 kPa	942.6 ± 1.2
3150.3 kPa	942.7 ± 1.2
3159 kPa	942.7 ± 1.2
3173.9 kPa	942.8 ± 1.2
3185.2 kPa	942.8 ± 1.2
3196.4 kPa	942.8 ± 1.2
3207.5 kPa	942.8 ± 1.2
3220.5 kPa	942.8 ± 1.2
3232.3 kPa	942.8 ± 1.2
3243.6 kPa	942.8 ± 1.2
3257.1 kPa	942.9 ± 1.2
3268.7 kPa	942.8 ± 1.2
3280 kPa	942.8 ± 1.2
3291.9 kPa	942.9 ± 1.2
3306.1 kPa	942.9 ± 1.2
3317.8 kPa	942.8 ± 1.2
3329.5 kPa	942.9 ± 1.2
3343.6 kPa	942.8 ± 1.2
3355.4 kPa	942.9 ± 1.2
3367.5 kPa	943 ± 1.2
3380.2 kPa	943 ± 1.2
3392.6 kPa	943.1 ± 1.2
3407.2 kPa	943 ± 1.2
3419.3 kPa	942.9 ± 1.2
3431.8 kPa	943.1 ± 1.2
3446.7 kPa	943 ± 1.2
3459.2 kPa	942.9 ± 1.2
3469.6 kPa	942.9 ± 1.2
3479.3 kPa	943 ± 1.2
3494.5 kPa	942.9 ± 1.2
3507.4 kPa	943 ± 1.2
3540.6 kPa	943 ± 1.2
3553.8 kPa	942.9 ± 1.2
3567 kPa	943.1 ± 1.2
3580 kPa	943.1 ± 1.2
3710.3 kPa	943.1 ± 1.2
3724.8 kPa	943.2 ± 1.2
3743.3 kPa	943 ± 1.2
3756.8 kPa	943.3 ± 1.2
3771.5 kPa	943.2 ± 1.2
